Source: patent US20260185169A1, “MOLECULAR SIGNATURES TO PREDICT LONG-TERM LIVER FIBROSIS PROGRESSION” (THE BOARD OF REGENTS OF THE UNIVERSITY OF TEXAS SYSTEM, priority 2022, published 2026)

Test system: FPS and molecular pathways
Experiment: Modulation of FPS and molecular pathways in hepatic transcriptome (RNA-Seq, CES/GSEI) in CENTAUR trial biopsies
Type: in vivo, human
Conditions: for modulation of FPS genes: cenicriviroc arm
Source text: Archived formalin-fixed liver tissues from index biopsy were used for histological assessment in all patients (FIG. 1 and Table 1A-11) to confirm no to minimal fibrosis (METAVIR fibrosis stage F0 or F1). The PLS validation set 1 (and FPS derivation set 1) is a case-control series of 43 chronic hepatitis C patients from a prior cohort study consecutively diagnosed and followed at Johns Hopkins and Massachusetts General Hospital between 1998 and 2010. Twenty-five patients were co-infected with HIV and on anti-retroviral therapies. The patients were regularly followed up with ultrasound elastography at median interval of 1.1 (IQR: 0.6-2.0) years. Liver stiffness measurement >7.0 and >9.5 kPa were regarded as indication of F2 and F3 fibrosis, respectively. The PLS validation set 2 (and FPS derivation set 2) is a case-control series of 38 patients who consecutively underwent liver transplantation for HCV-related cirrhosis and protocol liver biopsies at year 1, 2, and 5 after transplantation (and additional biopsies as needed to evaluate graft rejection, which were excluded) at Baylor University between 2002 and 2007. Median number of biopsies was 8 (IQR: 6-9) per patient with median interval between serial biopsies of 8.6 (IQR: 0.3-12.6) months. […] The FPS derivation set 3 is a cross-sectional series of 31 NAFLD patients who underwent diagnostic liver biopsy at Hiroshima University between 2003 and 2015. The FPS derivation set 4 is a cross-sectional series of 309 NAFLD patients who underwent diagnostic liver biopsy (F0 or F1 fibrosis) at Massachusetts General Hospital between 2009 and 2016. […] The cases were defined as patients who had F-stage increase of one stage or more in the follow-up biopsy. The FPS validation set 2 includes 78 patients with fibrotic liver diseases from various etiologies, for which de-identified fresh liver tissues were available from standard-care hepatic resection for organotypic ex vivo tissue culture at University of Texas Southwestern and Mount Sinai. The FPS validation set 3 consists of NASH patients with F1-F3 fibrosis who underwent liver biopsy before and after 1-year treatment with cenicriviroc (n=9) or placebo (n=10) in the phase Ilb CENTAUR trial (NCT02217475). Decrease of one or more fibrosis stage was regarded as anti-fibrotic response. The serum surrogate FPS was assessed in archived de-identified serum samples from 79 patients with chronic liver diseases. The FPSec validation set is a cohort of 122 patients with compensated (Child-Pugh class A) cirrhosis patients with mixed etiologies enrolled at University of Michigan between 2004 and 2006 as reported in our previous study. Hepatic decompensation was defined as newly developed massive ascites, hepatic encephalopathy, bleeding from gastroesophageal varices, or liver transplantation. The study was approved by institutional review board at respective institutions with written informed consent or exemption for use of archived de-identified samples (protocol numbers: STU062018-058, STU072018-071, 2010P000220/PHS, HS13-00159).
Total RNA was isolated from fixed tissue sections by using High Pure RNA Paraffin kit (Roche), and assessed for quality by qRT-PCR of RPL13A. Total RNA from the PCLS tissues was isolated using RNeasy kit (Qiagen). RNA samples (100-200 ng) were subjected to the PLS/FPS assay implemented in the nCounter platform (NanoString), and transcriptome profiling of the CENTAUR trial samples was performed by RNA-Seq (TrueSeq RNA Access, Illumina). Expression of BCL2, COL1A1, and ACTA2 genes was measured by qRT-PCR (Table 3). Serum protein profiling was performed by using xMAP assay (Luminex). […]

[1] = Fibrosis not improved, NASH patients, Hallmark set, Cellular signaling
[2] = Fibrosis not improved, NASH patients, Hallmark set, Inflammatory response, immunity
[3] = Fibrosis not improved, NASH patients, Hallmark set, Metabolism, biosynthesis
[4] = Fibrosis not improved, NASH patients, Hallmark set, Pathogenic response
[5] = Fibrosis not improved, NASH patients, Hallmark set, Sex hormone signaling
[6] = Fibrosis not improved, NASH patients, Hallmark set, Stress response
[7] = Fibrosis not improved, NASH patients, Immune cell signature (GSE65136)
[8] = Fibrosis not improved, NASH patients, Nuclear receptor signaling (curated pathway members)
[9] = Fibrosis not improved, NASH patients, PPAR agonists on mouse primary hepatocytes (GSE27948)

CCCCOCCOc1ccc(-c2ccc3c(c2)/C=C(/C(=O)Nc2ccc([S@@+]([O-])Cc4cncn4CCC)cc2)CCCN3CC(C)C)cc1 [Cenicriviroc]
NES, Mitotic spindle gene set (Fibrosis not improved, NASH patients, Hallmark set, Cell cycle, DNA damage, response): 0.82 | NES, Apoptosis gene set (Fibrosis not improved, NASH patients, Hallmark set, Cell death): 1.38 | NES, E2F targets gene set [1]: 1.88 | NES, Hedgehog signaling gene set [1]: 1.05 | NES, KRAS signaling gene set [1]: 1.63 | NES, Myc targets v1 gene set [1]: 2.19 | NES, Myc targets v2 gene set [1]: 1.55 | NES, Notch signaling gene set [1]: 0.84 | NES, PI3K/AKT/mTOR signaling gene set [1]: 1.43 | NES, TGFβ signaling gene set [1]: −0.70 | NES, TNFα signaling via NF-κB gene set [1]: 0.96 | NES, Wnt/β-catenin signaling gene set [1]: 0.87 | NES, mTORC1 signaling gene set [1]: 1.93 | NES, p53 pathway gene set [1]: 1.03 | NES, Allograft rejection gene set [2]: 2.25 | NES, IL2 STAT5 signaling gene set [2]: 1.70 | NES, IL6 JAK STAT3 signaling gene set [2]: 1.82 | NES, Inflammatory response gene set [2]: 1.61 | NES, Interferon-α response gene set [2]: 0.83 | NES, Interferon-γ response gene set [2]: 1.39 | NES, Adipogenesis gene set [3]: −0.72 | NES, Bile acid metabolism gene set [3]: −1.36 | NES, Cholesterol homeostasis gene set [3]: 0.99 | NES, Coagulation gene set [3]: 1.33 | NES, Complement gene set [3]: 1.37 | NES, Fatty acid metabolism gene set [3]: 0.73 | NES, Glycolysis gene set [3]: 1.43 | NES, Heme metabolism gene set [3]: −0.95 | NES, Oxidative phosphorylation gene set [3]: 1.16 | NES, Peroxisome gene set [3]: −1.03 | NES, Protein secretion gene set [3]: 1.30 | NES, Xenobiotic metabolism gene set [3]: 0.79 | NES, Angiogenesis gene set [4]: 1.64 | NES, Epithelial mesenchymal transition gene set [4]: 1.98 | NES, Androgen response gene set [5]: 1.63 | NES, Estrogen response early gene set [5]: 1.07 | NES, Estrogen response late gene set [5]: 1.18 | NES, Hypoxia gene set [6]: 1.67 | NES, Myogenesis gene set [6]: 1.73 | NES, Reactive oxygen species gene set [6]: 1.24 | NES, UV response up gene set [6]: 1.24 | NES, Unfolded protein response gene set [6]: 1.41 | NES, B cell (naïve) gene set [7]: 1.70 | NES, CD4 T cell (naïve) gene set [7]: 1.93 | NES, CD8 T cell gene set [7]: 2.31 | NES, DC (activate) gene set [7]: 1.75 | NES, Gamma delta T cell gene set [7]: 1.86 | NES, Macrophage (M1) gene set [7]: 1.70 | NES, Macrophage (M2) gene set [7]: 1.74 | NES, Mast cell (active) gene set [7]: 1.50 | NES, Mast cell (rest) gene set [7]: 1.71 | NES, Memory B cell gene set [7]: 1.67 | NES, Memory T cell (rest) gene set [7]: 2.25 | NES, Monocyte gene set [7]: 1.50 | NES, NK cell (rest) gene set [7]: 1.76 | NES, Neutrophil gene set [7]: 1.42 | NES, Plasma cell gene set [7]: 1.46 | NES, Regulatory T cell gene set [7]: 1.99 | NES, T follicular helper cell gene set [7]: 1.85 | NES, FXR pathway gene set [8]: −1.04 | NES, PPAR signaling gene set (first listed) [8]: −0.88 | NES, PPAR signaling gene set (second listed) [8]: −1.00 | NES, PPARα pathway gene set (first listed) [8]: −0.62 | NES, PPARα pathway gene set (second listed) [8]: −0.77 | NES, RAR/RXR pathway gene set [8]: −1.49 | NES, RXR/VDR pathway gene set [8]: −1.71 | NES, GW7647 (PPARa agonist) gene set (Fibrosis not improved, NASH patients, PPAR agonist on human primary hepatocytes (GSE53399)): −1.56 | NES, GW501516 (PPARd agonist) gene set [9]: −0.92 | NES, ROSIGLITAZONE (PPARg agonist) gene set [9]: −1.19 | NES, WY14643 (PPARa agonist) gene set [9]: 1.17 | NES, PDGFRB target gene signature (Fibrosis not improved, NASH patients, iLINCS): −0.79 | modulation of RXR, RAR and FXR pathways (both responders and non-responders): no obvious induction | modulation of FPS genes (patients with histological fibrosis improvement): suppressed or unchanged | modulation of FPS genes (patients with no fibrosis improvement): generally induced | modulation of PPAR pathways (fibrosis responders after 1-year treatment, non-responders lack it): enrichment | modulation of E2F signaling (fibrosis responders only): most strikingly suppressed | PPAR α target gene signature (vs δ and γ agonist signatures) (transcriptional target gene signatures defined in mouse primary hepatocyte): dominantly induced
